Source: US20050208036A1, “Methods for treating or preventing GVHD” (University of North Carolina at Chapel Hill, priority 2003, published 2005)
Values joined by “and” are separate entries in the source; they are usually repeats but may differ in a detail not shown here. Equal entries are not always repeated.

What was measured:
[1] = test system: donor CD4+ T cells from C57BL/6 mice with irradiated bm12 splenocytes; assay: Mixed lymphocyte reaction (MLR): proliferative response of T cells to alloantigen, 3H-thymidine incorporation; format: cell-based, mouse
Experimental: (§1) A bulk MLR was prepared by combining donor CD4^+ T cells obtained from C57BL/6 (H-2^b) mice (National Institutes of Health, Bethesda, Md., U.S.A.) in a 1:1 ratio with T cell-depleted, irradiated splenocytes obtained from bm12 (H-2^bm12), MHC class II disparate mice (The Jackson Laboratory, Bar Harbor, Me., U.S.A.). An anti-CD40L monoclonal antibody (hybridoma MR1, hamster IgG), obtained by culturing the hybridoma in 10% FBS/DMEM in an Accusyst Jr. hollow fiber bioreactor (Cellex Biosciences, Minneapolis, Minn., U.S.A.), was added to the bulk MLR culture and the cells were incubated for 7-10 days. Proliferative responses of the T cells to alloantigen were determined on days 2, 4, 5, 6, and 7 by measuring ^3H-thymidine incorporation into newly synthesized DNA. The antibody removed from the cultures by washing three times with 2% FBS/PBS, and aliquots of the cells (0.3×10^5, 10^5, and 3×10^5 cells) were administered in 0.5 mL DMEM by tail vein injection to bm12 mice subjected to a sublethal dose (6.0 Gy) of total body irradiation. Control irradiated mice received the same amounts of cells from MLR that had not been exposed to anti-CD40L. The mice were monitored for GVHD lethality, weight changes, and packed cell volume (PCV). Cells remaining from the primary MLR were mixed with fresh bm12 splenocytes for a secondary MLR, and proliferative responses to allogen were measured on days 1 through 5. Aliquots of the secondary MLR cultures were subsequently administered to irradiated bm12 mice.
An MLR culture was prepared consisting of a 1:1 ratio of CD4+ T cells obtained from C57BL/6 mice and T cell-depleted, irradiated MHC class II-disparate stimulators obtained from bm12 mice. PS1145, a potent inhibitor of IκB kinase and thus NF-κB activation, was added to the MLR culture at concentrations of 0.2 μM, 0.6 μM, 1 μM, 2 μM, 6 μM, and 10 μM. Control MLR cultures were left untreated or were treated with DMSO. […] This hyporesponsiveness persisted after washing of the T cells and re-exposure to alloantigen. As with anti-CD40L treated MLR, alloantigen hyporesponsiveness was reversed by addition of 50 U/mL exogenous IL-2 (FIG. 7).
(§2) The tolerance induced by PS1145 was specific to alloantigen, as responses to non-specific mitogens remained largely intact.
CD4^+ CD25^+ cells were required in cultures tolerized by anti-CD40L. To determine whether CD25^+ T cells, which express the high-affinity IL-2 receptor a chain (IL-2Rα), were required for PS 1145 induction of tolerance, CD25^+-depleted T cells were used in primary and secondary MLR. […] Similarly, CD4^+ CD25^+ T cells were not required for tolerance induction by PS1145 in secondary cultures.

bm12 mice = assay: GVHD lethality after transfer of MLR cells into sublethally irradiated MHC class II disparate recipients; format: in vivo, mouse
Experimental: as §1
CD4^+ T cells that were allowed to recover from a vehicle-treated 7 day MLR were uniformly fatal upon adoptive transfer into sublethally irradiated MHC class-II disparate recipients, whereas T cells subjected to ex vivo PS1145 treatment were lethal to only 22% of recipients. Mice were intravenously injected with either 10^5 naïve T cells, 10^5 cells from 7 day control MLR or 10^5 cells from MLR exposed to 6 μM or 10 μM PS1145 for 7 days. […] Thus, the NF-κB pathway is a critical regulator of T cell responses, and provides an ex vivo approach to inducing alloantigen-specific tolerance as a means of preventing GVHD.

[2] = test system: alloreactive transgenic T cells; assay: T cell apoptosis in MLR of alloreactive and non-alloreactive transgenic T cells, Annexin V binding; format: cell-based; conditions: 10 μM, 1:1 alloreactive and non-alloreactive transgenic T cells
Description: as §2

TNF-α [3] = assay: LPS-induced TNF-α expression in mice, ELISA; format: in vivo, B6 and BALB/c mice; conditions: 1 μg/kg LPS; 10, 25 or 50 mg/kg oral; 24-72 hours post-treatment; vs controls
Experimental: (§3) B6 and BALB/c mice were given 1 μg/kg of LPS, after which they orally received either control methylcellulose or PS1145 in methylcellulose. Animals were evaluated for expression of the cytokine TNF-α and the chemokine MIP-1α (CCL3) at 24-72 hours post-treatment, as assessed by ELISA.

MIP-1α (CCL3) [4] = assay: LPS-induced MIP-1α (CCL3) expression in mice, ELISA; format: in vivo, B6 and BALB/c mice; conditions: 1 μg/kg LPS; 10, 25 or 50 mg/kg oral; 24-72 hours post-treatment; vs controls
Experimental: as §3

B6D2 recipient mice = assay: Murine stem cell transplant GVHD model, survival; format: in vivo, mouse
Experimental: A murine stem cell transplant model was developed in which bone marrow was removed from B6 (H2^b) donors. The marrow was depleted of T cells by incubation with an anti-Thy 1.2 monoclonal antibody coupled to magnetic beads, followed by removal of T cells that bound the antibody using a magnetic column. Thy 1.2^+ T cells were isolated from splenocytes using a similar approach and were added back to the bone marrow. Animals received between 1-5×10^6 T cells and 3×10^6 bone marrow cells after lethal irradiation. The T cell-depleted marrow was transplanted into B6D2H2^bxd recipient mice that had been subjected to a lethal dose of irradiation (8.5 Gy). Recipient mice were divided into six groups, three of which received 1 mg PS1145 starting on day −2, day 0, or day 6 relative to transplant. The other three groups received methylcellulose as a control, starting on day −2, 0, or 6. PS1145 suspended in methylcellulose or methylcellulose alone was administered daily by gavage, through day 14. Mice were evaluated every three days for weight loss, GVHD, and outcome. […] Treatment with PS1145 that started on day 6 was correlated with an earlier death (all mice were dead by about day 12) as compared to treatment that started on day 0 (all mice were dead by about day 28). All mice in the methylcellulose control group were dead by day 20.
In a similar experiment, recipient mice were subjected to 1125 cGy of irradiation and then treated with oral doses of 5 mg/kg methylcellulose or PS1145. In this case, however, all animals in both groups were dead by about day 42 post-transplant (FIG. 12). […] Thus, the use of PS1145 to ameliorate GVHD via an oral route was not effective using very heavy doses of irradiation.
Experiments also were performed in which 5 mg/kg PS1145 or methylcellulose was given intraperitoneally (i.p.) to mice starting on day −2 and ending on day 14 post-transplantation. B6D2 mice that had received 850 cGy of irradiation were injected with 3×10^6 bone marrow cells from B6 donors and 5×10^6 selected B6 T cells.

TNF-α [5] = assay: TNF-α levels in colon and small intestine after transplant, cytokine bead assay; format: in vivo, mouse; conditions: 5 mg/kg i.p. on days −1 and −2, days 3-18, vs untreated
Experimental: (§4) Expression of TNF-α and MIP-1α (CCL3) was evaluated in mice treated i.p. with PS1145 and subjected to transplantation of T cell-depleted bone marrow with Thy 1-selected splenocytes as a source of T cells. Mice in the test group received 5 mg/kg PS1145 on days −1 and −2 relative to transplant, while control animals were untreated. Animals were sacrificed from days 3-18 for assessment of TNF-α levels in the colon and small intestine and MIP-1α levels in the liver. A cytokine bead assay was used to measure levels of these factors. […] While TNF-α levels in control animals increased from day 3 to day 18, the level was relatively constant in animals exposed to PS1145.

MIP-1α (CCL3) [6] = assay: MIP-1α levels in liver after transplant, cytokine bead assay; format: in vivo, mouse; conditions: 5 mg/kg i.p. on days −1 and −2, days 3-18, vs untreated
Experimental: as §4

NEMO = NEMO (Homo sapiens, UniProt Q9Y6K9); assay: NBD mutants: ability to bind to NEMO; format: binding
Sequence of NEMO (Q9Y6K9 whole entry, species assumed): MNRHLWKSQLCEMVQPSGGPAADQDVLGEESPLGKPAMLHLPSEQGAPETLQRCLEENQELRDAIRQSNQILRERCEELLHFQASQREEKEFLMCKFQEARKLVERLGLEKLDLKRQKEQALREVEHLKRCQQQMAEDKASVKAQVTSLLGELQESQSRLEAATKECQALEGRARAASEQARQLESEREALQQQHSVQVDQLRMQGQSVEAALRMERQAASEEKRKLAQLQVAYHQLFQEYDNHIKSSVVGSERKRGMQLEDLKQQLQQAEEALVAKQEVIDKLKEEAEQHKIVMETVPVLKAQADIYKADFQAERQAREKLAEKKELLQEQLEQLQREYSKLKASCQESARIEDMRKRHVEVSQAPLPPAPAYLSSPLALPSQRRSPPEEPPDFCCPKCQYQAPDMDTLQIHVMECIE

[7] = 5 mg/kg i.p. day −2 to day 14, 850 cGy
[8] = oral 5 mg/kg, 1125 cGy irradiation

O=C(Nc1cc(Cl)cc2c1[nH]c1cnccc12)c1cccnc1 [PS1145]
response on re-exposure to allogeneic APC ([1]; 10 μM, re-exposed to allogeneic APC): remained hyporesponsive | proliferation after secondary stimulus of CD3+ and CD28+ cells ([1]; 10 μM, secondary stimulus CD3+ and CD28+ cells): comparable to controls | alloantigen hyporesponsiveness with exogenous IL-2 ([1]; 50 U/mL exogenous IL-2 added): reversed | T cell proliferation in response to alloantigen ([1]; MLR treated with 6 μM and 10 μM): reduced level of proliferation | hyporesponsiveness after washing of the T cells and re-exposure to alloantigen ([1]; after washing, re-exposure to alloantigen): persisted | Long term survival (>90 days) (bm12 mice; 10^5 cells i.v. from MLR exposed to 6 μM for 7 days): five of eight and 5/8 | Long term survival (>90 days) (bm12 mice; 10^5 cells i.v. from MLR exposed to 10 μM for 7 days): nine of ten and 9/10 | recipients to which treated T cells were lethal (bm12 mice; T cells treated ex vivo, adoptive transfer): 22% | long-term survival rate (bm12 mice; recipients of donor T cells treated ex vivo): 78% | rate of T cell apoptosis [2]: increased the rate of T cell apoptosis selectively in alloreactive cells | TNF-α expression (TNF-α [3]): markedly reduced | MIP-1α (CCL3) expression (MIP-1α (CCL3) [4]): markedly reduced | day by which all mice were dead (B6D2 recipient mice; 1 mg daily by gavage from day 0 through day 14, 8.5 Gy): ~28 days | day by which all mice were dead (B6D2 recipient mice; 1 mg daily by gavage from day 6 through day 14, 8.5 Gy): ~12 days | mice surviving at least through day 50 (B6D2 recipient mice; 1 mg daily by gavage from day −2 through day 14, 8.5 Gy): about 20% | Survival Day 30 (B6D2 recipient mice; [7]): 7/10 | Survival Day 60 (B6D2 recipient mice; [7]): 5/10 | survival of B6D2 mice (B6D2 recipient mice; [7]): 50% | day post-transplant by which all animals were dead (B6D2 recipient mice; [8]): ~42 days | survival time compared with methylcellulose group (B6D2 recipient mice; [8]): little difference | TNF-α expression in colon and small intestine (TNF-α [5]): significantly decreased | MIP-1α levels in the liver (MIP-1α (CCL3) [6]): Analogous results

ADWSWL (Hexapeptide variant of human IKK-beta NBD (SEQ ID NO2) having A in the 1st position.) [NBD mutant]
Binds to NEMO (NEMO): Yes

LAWSWL (Hexapeptide variant of human IKK-beta NBD (SEQ ID NO2) having A in the 2nd position.) [NBD mutant]
Binds to NEMO (NEMO): No

LDASAL (Hexapeptide variant of human IKK-beta NBD (SEQ ID NO2) having A in the 3rd and 5th positions.) [NBD mutant]
Binds to NEMO (NEMO): No

LDASWL (Hexapeptide variant of human IKK-beta NBD (SEQ ID NO2) having A in the 3rd position.) [NBD mutant]
Binds to NEMO (NEMO): No

LDFSWL (Hexapeptide variant of human IKK-beta NBD (SEQ ID NO2) having F in the 3rd position.) [NBD mutant]
Binds to NEMO (NEMO): Yes

LDSWSL (listed as Homo sapiens)
Binds to NEMO (NEMO): Yes

LDWAWL (Hexapeptide variant of human IKK-beta NBD (SEQ ID NO2) having A in the 4th position.) [NBD mutant]
Binds to NEMO (NEMO): Yes

LDWEWL (Hexapeptide variant of human IKK-beta NBD (SEQ ID NO2) having E in the 4th position.) [NBD mutant]
Binds to NEMO (NEMO): Yes

LDWSAL (Hexapeptide variant of human IKK-beta NBD (SEQ ID NO2) having A in the 5th position.) [NBD mutant]
Binds to NEMO (NEMO): No

LDWSFL (Hexapeptide variant of human IKK-beta NBD (SEQ ID NO2) having F in the 5th position.) [NBD mutant]
Binds to NEMO (NEMO): Yes

LDWSWA (Hexapeptide variant of human IKK-beta NBD (SEQ ID NO2) having A in the 6th position.) [NBD mutant]
Binds to NEMO (NEMO): Yes

LDWSYL (Hexapeptide variant of human IKK-beta NBD (SEQ ID NO2) having Y in the 5th position.) [NBD mutant]
Binds to NEMO (NEMO): No

LDYSWL (Hexapeptide variant of human IKK-beta NBD (SEQ ID NO2) having Y in the 3rd position.) [NBD mutant]
Binds to NEMO (NEMO): Yes

LEWSWL (Hexapeptide variant of human IKK-beta NBD (SEQ ID NO2) having E in the 2nd position.) [NBD mutant]
Binds to NEMO (NEMO): Yes

LNWSWL (Hexapeptide variant of human IKK-beta NBD (SEQ ID NO2) having N in the 2nd position.) [NBD mutant]
Binds to NEMO (NEMO): Yes
